Read-outs that look alike come from different tables or passages of the source. Starred links: 1 amine or outer side, 2 acyl side, 3 side chain; linkers in the order of their positions; H or OH if unused. Non-standard residues stand in square brackets, D forms with d. Groups on a side chain read outwards from the residue. *: point of attachment. C20 diacid = O=C(O)CCCCCCCCCCCCCCCCCCC(=O)*; C18 diacid = O=C(O)CCCCCCCCCCCCCCCCC(=O)*; γGlu = O=C(O)[C@H](CCC(=O)[*:2])N[*:1]; αMe4Pal = C[C@](N)(Cc1ccncc1)C(=O)O; αMeY = C[C@](N)(Cc1ccc(O)cc1)C(=O)O; 4Pal = N[C@@H](Cc1ccncc1)C(=O)O; αMeL = CC(C)C[C@](C)(N)C(=O)O; Orn = NCCC[C@H](N)C(=O)O; AEEA = NCCOCCOCC(=O)O; Aib = CC(C)(N)C(=O)O
Key:
Type in all cases: cell-based
hGIPR [1] = target: T1, hGIPR (Homo sapiens, UniProt P48546); assay: Functional cAMP activation in the presence of 0.1% casein (no HSA);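 also: intracellular cAMP rise after 30 min at 37 °C read by HTRF against a standard curve, scaled between buffer alone (0%) and top control ligand concentration (100%), four-parameter fit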
T1 sequence (P48546 22-466): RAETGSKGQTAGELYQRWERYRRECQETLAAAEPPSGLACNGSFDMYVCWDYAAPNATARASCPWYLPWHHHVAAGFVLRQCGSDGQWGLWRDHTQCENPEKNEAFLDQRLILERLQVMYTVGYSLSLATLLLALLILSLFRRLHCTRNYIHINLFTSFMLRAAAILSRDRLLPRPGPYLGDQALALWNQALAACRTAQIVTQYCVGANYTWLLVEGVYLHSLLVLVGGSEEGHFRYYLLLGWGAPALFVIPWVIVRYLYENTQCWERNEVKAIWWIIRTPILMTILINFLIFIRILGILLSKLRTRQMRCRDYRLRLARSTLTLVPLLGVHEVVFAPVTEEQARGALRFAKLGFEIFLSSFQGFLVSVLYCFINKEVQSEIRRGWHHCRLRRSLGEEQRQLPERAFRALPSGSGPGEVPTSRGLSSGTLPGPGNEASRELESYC

hGLP-1R [2] = target: T2, hGLP-1R (Homo sapiens, UniProt P43220); assay: as above;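 also: intracellular cAMP rise after 30 min at 37 °C read by HTRF, normalized between buffer only (0%) and maximal control ligand (100%), four-parameter variable-slope fit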
T2 sequence (P43220 24-463): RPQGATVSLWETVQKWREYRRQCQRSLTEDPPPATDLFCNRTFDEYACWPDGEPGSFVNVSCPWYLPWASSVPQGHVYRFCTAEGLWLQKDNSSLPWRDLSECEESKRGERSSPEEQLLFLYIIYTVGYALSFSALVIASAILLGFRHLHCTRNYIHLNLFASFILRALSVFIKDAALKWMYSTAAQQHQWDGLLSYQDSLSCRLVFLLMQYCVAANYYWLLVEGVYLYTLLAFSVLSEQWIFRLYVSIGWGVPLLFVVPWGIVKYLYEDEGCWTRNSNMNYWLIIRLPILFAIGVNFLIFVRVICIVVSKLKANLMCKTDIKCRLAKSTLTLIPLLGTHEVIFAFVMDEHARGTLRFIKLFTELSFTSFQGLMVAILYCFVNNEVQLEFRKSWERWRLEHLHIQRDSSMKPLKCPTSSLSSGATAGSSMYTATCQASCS

human GcgR = human GcgR (Homo sapiens, UniProt P47871); assay: Functional cAMP activity in the presence of 1% HSA
Sequence of human GcgR (P47871 26-477): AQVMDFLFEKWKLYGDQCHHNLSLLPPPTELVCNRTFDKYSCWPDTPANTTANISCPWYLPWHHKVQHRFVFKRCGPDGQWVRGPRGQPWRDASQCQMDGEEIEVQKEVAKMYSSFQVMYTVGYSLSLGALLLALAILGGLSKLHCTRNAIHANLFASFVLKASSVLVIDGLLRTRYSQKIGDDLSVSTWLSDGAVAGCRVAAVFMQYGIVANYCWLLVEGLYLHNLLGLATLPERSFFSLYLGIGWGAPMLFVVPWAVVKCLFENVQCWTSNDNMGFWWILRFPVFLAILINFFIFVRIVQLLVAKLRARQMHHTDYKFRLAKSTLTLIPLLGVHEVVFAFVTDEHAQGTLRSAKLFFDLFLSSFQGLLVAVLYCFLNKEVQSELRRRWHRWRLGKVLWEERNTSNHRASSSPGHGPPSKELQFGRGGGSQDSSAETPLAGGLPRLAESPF

hGIPR [3] = target: T1, hGIPR; assay: Functional cAMP activity in the presence of 1% HSA
hGLP-1R [4] = target: T2, hGLP-1R; assay: Functional cAMP activity in the presence of 1% HSA
hGcgR = hGcgR (Homo sapiens, UniProt P47871); assay: Functional cAMP activation in the presence of 0.1% casein (no HSA);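 also: intracellular cAMP rise after 30 min at 37 °C, read by HTRF against a cAMP standard curve, scaled from buffer only (0%) to maximal control ligand response (100%)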
Sequence of hGcgR (P47871 26-477): as above

[5] = in the presence of 0.1% casein (no HSA), geometric mean, read-out: Relative cAMP EC50, hGIPR
[6] = in the presence of 0.1% casein (no HSA), geometric mean, read-out: Relative cAMP EC50, hGLP-1R
[7] = read-out: cAMP Rel EC50, hGLP-1R
[8] = in the presence of 0.1% casein (no HSA), geometric mean, read-out: Relative cAMP EC50, hGcgR
[9] = read-out: Relative cAMP EC50, hGIPR
[10] = read-out: Relative cAMP EC50, hGLP-1R
[11] = read-out: Relative cAMP EC50, hGcgR
[12] = HEK-293 clonal cell line, in the presence of 1% HSA, geometric mean of relative EC50, read-out: cAMP Rel EC50, hGcgR
[13] = HEK-293 clonal cell line, in the presence of 1% HSA, geometric mean of relative EC50, read-out: cAMP Rel EC50, hGIPR
[14] = HEK-293 clonal cell line, in the presence of 1% HSA, geometric mean of relative EC50, read-out: cAMP Rel EC50, hGLP-1R

| Substance | EC50 (hGIPR [1]; [5]) | EC50 (hGLP-1R [2]; [6]) | EC50 (human GcgR; read-out: cAMP Rel EC50, hGcgR) | EC50 (hGIPR [3]; read-out: cAMP Rel EC50, hGIPR) | EC50 (hGLP-1R [4]; [7]) | EC50 (hGcgR; [8]) | also measured |
| --- | --- | --- | --- | --- | --- | --- | --- |
| H-Y[Aib]QGTFTSDFS[Orn][αMeL]LDKK([AEEA-γGlu-C20 diacid])AQ[Aib]AFIEYLLAGGTSSGEPPPSGE-NH2 [Example 106] | 0.345 nM | 3.94 nM | 2000 nM | 91 nM | 977 nM | 6.26 nM | – |
| H-Y[Aib]QGTFTSDFS[Orn][αMeL]LDKK([AEEA-γGlu-C20 diacid])AQ[Aib]AFIEYLLEGGPSSGEPPPSEG-NH2 [Example 59] | 0.54 nM | 4.8 nM | 2160 nM | 166 nM | 1370 nM | 6.57 nM | – |
| H-Y[Aib]QGTFTSDFS[Orn][αMeL]LDKK([AEEA-γGlu-C20 diacid])AQ[Aib]AFIEYLLE[Aib]GPSSGAPPPSEG-NH2 [Example 61] | 0.122 nM | 2.05 nM | 1310 nM | 55.2 nM | 704 nM | 3.57 nM | – |
| H-Y[Aib]QGTFTSDFS[Orn][αMeL]LDKK([AEEA-γGlu-C20 diacid])AQ[Aib]AFIEYLLE[Aib]GPSSGAPPPSGS-NH2 [Example 73] | 0.114 nM | 2.44 nM | 1530 nM | 57.9 nM | 810 nM | 4.58 nM | – |
| H-Y[Aib]QGTFTSDFS[Orn][αMeL]LDKK([AEEA-γGlu-γGlu-C18 diacid])AQ[Aib]AFIEYLLE[Aib]GHSSGAPPPSGS-NH2 [Example 243] | 0.178 nM | 6.46 nM | 711 nM | 12.1 nM | 610 nM | 6.86 nM | – |
| H-Y[Aib]QGTFTSDFS[Orn][αMeL]LDKK([γGlu-AEEA-γGlu-C18 diacid])AQ[Aib]AFIEYLLE[Aib]GESSGAPPPSGS-NH2 [Example 244] | 0.0972 nM | 7.68 nM | 1230 nM | 18.8 nM | 645 nM | 4.81 nM | – |
| H-Y[Aib]QGTFTSDFS[Orn][αMeL]LDKK([γGlu-AEEA-γGlu-C18 diacid])AQ[Aib]AFIEYLLE[Aib]GHSSGAPPPSGS-NH2 [Example 245] | 0.0684 nM | 5.99 nM | 1120 nM | 10.5 nM | 540 nM | 7.07 nM | – |
| H-Y[Aib]QGTFTSDFS[Orn][αMeL]LDKK([γGlu-AEEA-γGlu-C18 diacid])AQ[Aib]AFIEYLLE[Aib]GPSSGAPPPSG[4Pal]-NH2 [Example 277] | 0.0672 nM | 5.56 nM | 1690 nM | 13.3 nM | 639 nM | 10.6 nM | – |
| H-Y[Aib]QGTFTSDFS[Orn][αMeL]LDKK([γGlu-γGlu-C18 diacid])AQ[Aib]AFIEYLLEGGPSSG[Aib]PPPGGS-NH2 [Example 771] | – | – | 955 nM | 44.2 nM | 665 nM | – | EC50 (hGIPR [1]; [9]): 0.232 nM; EC50 (hGLP-1R [2]; [10]): 4.38 nM; EC50 (hGcgR; [11]): 5.05 nM |
| H-Y[Aib]QGTFTSDFS[Orn][αMeL]LDKK([γGlu-γGlu-C18 diacid])AQ[Aib]AFIEYLLEGGPSS[Aib]APPPGGS-NH2 [Example 770] | – | – | 390 nM | 18.2 nM | 240 nM | – | EC50 (hGIPR [1]; [9]): 0.244 nM; EC50 (hGLP-1R [2]; [10]): 3.91 nM; EC50 (hGcgR; [11]): 5.37 nM |
| H-Y[Aib]QGTFTSDFS[Orn][αMeL]LDKK([γGlu-γGlu-C18 diacid])AQ[Aib]AFIEYLLE[Aib]GPSSGAPPPSGS-NH2 [Example 201] | 0.0553 nM | 3.16 nM | 969 nM | 14.3 nM | 679 nM | 3.84 nM | – |
| H-Y[Aib]QGTFTSDFS[Orn][αMeL]LDKK([γGlu-γGlu-γGlu-C18 diacid])AQ[Aib]AFIEYLLE[Aib]GPSSGAPPPSGS-NH2 [Example 202] | 0.0965 nM | 4.79 nM | 697 nM | 11.7 nM | 376 nM | 11.4 nM | – |
| H-Y[Aib]QGTFTSDFS[Orn][αMeL]LD[Orn]K([γGlu-γGlu-C18 diacid])AQ[Aib]AFIEYLLEGGPSSGAPPPGGSEE-NH2 [Example 1048] | 0.356 nM | 6.23 nM | – | – | – | 6.9 nM | EC50 (human GcgR; [12]): 1930 nM; EC50 (hGIPR [3]; [13]): 108 nM; EC50 (hGLP-1R [4]; [14]): 1900 nM |
| H-Y[Aib]QGTFTSDFS[Orn][αMeL]LD[Orn]K([γGlu-γGlu-C18 diacid])AQ[Aib]AFIE[αMe4Pal]LLEGGPSSGAPPPGGSEE-NH2 [Example 1050] | 0.152 nM | 7.65 nM | – | – | – | 6.8 nM | EC50 (human GcgR; [12]): 2040 nM; EC50 (hGIPR [3]; [13]): 68.5 nM; EC50 (hGLP-1R [4]; [14]): 1240 nM |
| H-Y[Aib]QGTFTSDFS[Orn][αMeL]LD[Orn]K([γGlu-γGlu-C18 diacid])AQ[Aib]AFIE[αMeY]LLEGGPSSGAPPPGGSEE-NH2 [Example 1049] | 0.24 nM | 2.23 nM | – | – | – | 6.33 nM | EC50 (human GcgR; [12]): 1280 nM; EC50 (hGIPR [3]; [13]): 56.2 nM; EC50 (hGLP-1R [4]; [14]): 780 nM |
| H-Y[Aib]QGTFTSDYSI[αMeL]LDKIAAK([AEEA-AEEA-γGlu-C20 diacid])QFVEWLLA[Aib]GPSSGEPPPSEG-NH2 [Example 324] | 0.164 nM | 4.4 nM | 1410 nM | 20.7 nM | 1060 nM | 5.74 nM | – |
| H-Y[Aib]QGTFTSDYSI[αMeL]LDKIAAK([AEEA-AEEA-γGlu-C20 diacid])QFVEYLIAGGPSSGEPPPSEG-NH2 [Example 312] | 0.504 nM | 2.66 nM | 4070 nM | 97.7 nM | 589 nM | 7.5 nM | – |
| H-Y[Aib]QGTFTSDYSI[αMeL]LDKQAAK([AEEA-AEEA-γGlu-C20 diacid])AFVEWLLA[Aib]GPSSGEPPPSEG-NH2 [Example 317] | 0.474 nM | 1.32 nM | 1500 nM | 62.8 nM | 234 nM | 2.42 nM | – |
| H-Y[Aib]QGTFTSDYSI[αMeL]LDKQAAK([AEEA-AEEA-γGlu-C20 diacid])QFIEWLIEGGPSSGEPPPGAE-NH2 [Example 319] | – | – | – | – | – | – | EC50 (hGIPR [1]): 0.485 nM; EC50 (hGLP-1R [2]): 0.947 nM; EC50 (human GcgR): 1650 nM; EC50 (hGIPR [3]): 60.1 nM; EC50 (hGLP-1R [4]): 119 nM; EC50 (hGcgR): 4.81 nM |
| H-Y[Aib]QGTFTSDYSI[αMeL]LDKQAAK([AEEA-AEEA-γGlu-C20 diacid])QFIEWLIEGGPSSGEPPPGEG-NH2 [Example 318] | 0.378 nM | 0.698 nM | 1970 nM | 52.8 nM | 111 nM | 5.03 nM | – |
| H-Y[Aib]QGTFTSDYSI[αMeL]LDKQAAK([AEEA-AEEA-γGlu-C20 diacid])QFVEWLIAGGPSSGEPPPAEG-NH2 [Example 332] | 0.413 nM | 1.24 nM | 3340 nM | 78.2 nM | 298 nM | 11.8 nM | – |
| H-Y[Aib]QGTFTSDYSI[αMeL]LDKQAAK([AEEA-AEEA-γGlu-C20 diacid])QFVEWLIA[Aib]GPSSGEPPPGEG-NH2 [Example 333] | 0.265 nM | 0.705 nM | 1410 nM | 36.3 nM | 182 nM | 7.09 nM | – |
| H-Y[Aib]QGTFTSDYSI[αMeL]LDKQAAK([AEEA-AEEA-γGlu-C20 diacid])QFVEWLIA[Aib]GPSSGEPPPGSG-NH2 [Example 335] | 0.292 nM | 0.461 nM | 1410 nM | 46.7 nM | 150 nM | 6.11 nM | – |
| H-Y[Aib]QGTFTSDYSI[αMeL]LDKQAAK([AEEA-AEEA-γGlu-C20 diacid])QFVEWLIA[Aib]GPSSGEPPPGTG-NH2 [Example 336] | 0.306 nM | 0.921 nM | 1740 nM | 64.4 nM | 227 nM | 7.05 nM | – |
| H-Y[Aib]QGTFTSDYSI[αMeL]LDKQAAK([AEEA-AEEA-γGlu-C20 diacid])QFVEWLIA[Aib]GPSSGEPPPSEG-NH2 [Example 326] | 0.3 nM | 0.555 nM | 1500 nM | 83.7 nM | 172 nM | 5.34 nM | – |
| H-Y[Aib]QGTFTSDYSI[αMeL]LDKQAAK([AEEA-AEEA-γGlu-C20 diacid])QFVEWLLA[Aib]GPSSGAPPPSEG-NH2 [Example 327] | 0.312 nM | 1.61 nM | 1400 nM | 63.3 nM | 473 nM | 3.04 nM | – |
| H-Y[Aib]QGTFTSDYSI[αMeL]LDKQAAK([AEEA-AEEA-γGlu-C20 diacid])QFVNWLLA[Aib]GPSSGEPPPSEG-NH2 [Example 325] | 0.351 nM | 1.56 nM | 774 nM | 82.7 nM | 371 nM | 2.43 nM | – |

— patent US20240270821A1, “GIP/GLP1/GCG TRI-RECEPTOR AGONISTS AND USES THEREOF” (priority 2023, published 2024)
